Experimental data as given in publication PMC13576449, “Small-Molecule Activators of PRMT1: Discovery, SAR Analyses, and Proapoptotic Effects in Pancreatic Cancer Cells” (Journal of Medicinal Chemistry, 2026).

Experiments:
FLAG-tagged PRMT3 = target: T1, FLAG-tagged PRMT3 (Homo sapiens, UniProt O60678); test: Fluorescence-based in vitro PRMT assay (F-PRMT assay), PRMT3; format: biochemical; details: for Experimental result (PRMT3): vs solvent control = 100%
T1 construct: The complete ORFs of human PRMT3 and PRMT6 were inserted; made in house; host or cells: Sf9 insect cells (baculovirus)
Description: To evaluate the effects of the selected candidate molecules on the catalytic activity of type I enzymes, we employed a quantitative fluorescence-based in vitro PRMT activity (F-PRMT) assay using recombinant FLAG-tagged PRMT proteins expressed and affinity-purified from baculovirus-infected Sf9 cells (SI Figure S1, SI Figure S2A).
Human cell lines (PaTu8988T, PANC-1) were obtained from ATCC (American Type Culture Collection) and cultured in DMEM supplemented with 10% fetal calf serum (FCS, Gibco/BRL), 1% penicillin/streptomycin at 37 °C and 5% CO2. […] For PRMT1 inhibition, cells were treated with type I PRMT inhibitor MS023 hydrochloride (Biomol). For induction of genotoxic stress, cells were treated with gemcitabine (LC Laboratories). […] The following plasmids were used: pFASTBAC-FLAG-rat PRMT1, pFASTBAC-FLAG-mouse PRMT4, and pGEX-GAR. The complete ORFs of human PRMT3 and PRMT6 were inserted into the pFASTBAC HT-3xFLAG B vector via BamHI/HindIII and BamHI/XhoI sites, respectively.
For PRMT protein expression in insect cells, recombinant baculovirus (bacmid) was generated using the Bac-to-Bac baculovirus system (Invitrogen). Sf9 cells were transfected with bacmid DNA using X-tremeGENE HP DNA transfection reagent (Sigma-Aldrich) according to the manufacturer's instructions. After 3–5 days, supernatants were collected, filtered, and used to infect Sf9 cells to amplify the virus. After 2 rounds of virus amplification and estimation of the final P3 virus titer, the P3 virus (2–5 μL/10^6 cells) was applied for large-scale infection of 200 × 10^6 Sf9 cells in suspension culture at a density of 1 × 10^6 cells/mL. Cells were harvested 5–6 days post-infection by centrifugation at 500 g for 5 min at room temperature. Protein purification from baculovirus-infected Sf9 cells was performed as previously described. , Cells were lysed in BC buffer (20 mM HEPES pH 7.9, 250 mM NaCl, 10% (v/v) glycerin, 0.4 mM EDTA, 1 mM DTT) containing a protease inhibitor cocktail (Roche) by 3 freeze-thaw cycles. After centrifugation at 11,000 rpm (Sorval SS34 rotor) and 4 °C for 1 h, the supernatant (whole cell protein extract) was incubated with anti-FLAG M2 Affinity Gel (Cytiva) at 4 °C and under agitation for 4 h. Subsequently, beads were washed in BC buffer containing various NaCl concentrations (once in BC with 1 M NaCl, twice in BC with 500 mM NaCl, twice in BC with 250 mM NaCl and twice in BC with 100 mM NaCl). FLAG-tagged proteins were either maintained bead-bound as a 50% (v/v) slurry in BC buffer with 100 mM NaCl and stored at −80 °C or were eluted in the appropriate elution buffer (depending on the subsequent assay) containing 0.25 mg/mL 3xFLAG peptides (Sigma-Aldrich) at 4 °C for 30–45 min. To remove the FLAG-peptides from the eluate, dialysis was performed in elution buffer containing 10% (v/v) glycerol at 4 °C for 4–6 h using Slide-A-Lyzer Dialysis Devices (Thermo Fisher Scientific) according to the manufacturer’s recommendations.
In the first step, the fluorogenic substrate Nα-Benzoyl-L-arginine-7-amido-4-methylcoumarin (Bz-Arg-AMC, Sigma-Aldrich) undergoes methylation by PRMTs upon the addition of the cofactor SAM. In the second reaction step, trypsin cleaves the nonmethylated substrate, leading to the generation of the 7-amino-4-methylcoumarin product, which can be quantified by subsequent fluorescence measurement (excitation: 355 nm, emission: 460 nm). The first reaction was conducted with bead-bound PRMTs at a total volume of 100 μL. Each condition was performed as a technical triplicate to determine the mean and the standard deviation. […] For the negative controls, SAM was substituted with assay buffer. The incubation was continued at 37 °C and under agitation (1,000 rpm) for a duration of 2 h.

PANC-1 xenografts = test: PDAC xenograft mouse model, tumor growth; format: in vivo; details: female athymic nude mice, intraperitoneal, 2 weeks; 150 mg/kg TR-07 daily, 10 mg/kg gemcitabine every second day; n = 5
PANC-1 cells = test: CaspaseGlo 3/7 apoptosis assay, PANC-1; format: cell-based, human; details: 72 h
Experimental: 6 Effect of small-molecule modulators on gemcitabine-induced apoptosis and tumor growth of PDAC cells. […] After 2 h, gemcitabine (GEM) was added at increasing concentrations (10 and 25 nM) or not (−) for another incubation of 72 h. Subsequently, the luminescence-based caspase3/7 assay was performed. The activity of caspase 3/7 in treated cells was normalized to the activity measured in untreated cells (dark gray bar), which was set to 1 (mean SD, n = 6 for PANC-1 and n = 4 for PaTu8988T; *: p ≤ 0.05, **: p ≤ 0.01, ***: p ≤ 0.001, using the student t-test). […] After 24 h, gemcitabine (GEM, 1 μM) was added (+) or not (−) for another incubation of 48 h. Subsequently, the apoptotic cell fraction was quantified in % by flow cytometry using FITC-labeled Annexin V (AV) and propidium iodide (PI) staining (in B: mean ± SD, n = 6 for PANC-1 and n = 5 for PaTu8988T; **: p ≤ 0.01, ***: p ≤ 0.001, ****: p ≤ 0.0001, using the student t-test). […] Viable cells are AV/PI double-negative (AV–/PI–, lower left quadrant, Q4), early apoptotic cells are AV single-positive (AV+/PI– upper left quadrant, Q1), late apoptotic cells are AV/PI double-positive (AV+/PI+, upper right quadrant, Q2), and necrotic cells are PI single-positive (AV–/PI+, lower right quadrant, Q3). The sum of early and late apoptotic cell numbers ([…] in %) is indicated in red. D-G: The workflow of the PDAC xenograft experiments in mice is depicted in D. PANC-1 cells (2 × 10^6 cells/mouse) were subcutaneously (s.c.) injected in the right flank of female athymic nude mice. Small tumor nodules appeared 6 days post-engraftment. […] Tumor volumes were measured every second day using a digital caliper. […] At the end of the 2 weeks, mice were sacrificed and tumors were dissected (F).
For quantification of apoptosis using the CaspaseGlo 3/7 assay (Promega), PANC-1 and PaTu8988T cells were seeded in triplicates in white 96-well plate (5 × 10^3 cells/well) and cultured in the absence or presence of compounds. After 2 h, as soon as the cells had settled, gemcitabine was added or not, and cells were incubated for another 72 h. Subsequently, the caspase3/7 activity was measured using the luminescence-based CaspaseGLO-3/7 assay (Promega). To this end, the CaspaseGlo reagent was subsequently added to the cells at a 1:1 ratio and incubated at room temperature and under agitation for 30 min protected from light. The luminescence measurements were carried out using a microplate reader (Mithras LB 940, Berthold).

T1 sequence (O60678 whole entry): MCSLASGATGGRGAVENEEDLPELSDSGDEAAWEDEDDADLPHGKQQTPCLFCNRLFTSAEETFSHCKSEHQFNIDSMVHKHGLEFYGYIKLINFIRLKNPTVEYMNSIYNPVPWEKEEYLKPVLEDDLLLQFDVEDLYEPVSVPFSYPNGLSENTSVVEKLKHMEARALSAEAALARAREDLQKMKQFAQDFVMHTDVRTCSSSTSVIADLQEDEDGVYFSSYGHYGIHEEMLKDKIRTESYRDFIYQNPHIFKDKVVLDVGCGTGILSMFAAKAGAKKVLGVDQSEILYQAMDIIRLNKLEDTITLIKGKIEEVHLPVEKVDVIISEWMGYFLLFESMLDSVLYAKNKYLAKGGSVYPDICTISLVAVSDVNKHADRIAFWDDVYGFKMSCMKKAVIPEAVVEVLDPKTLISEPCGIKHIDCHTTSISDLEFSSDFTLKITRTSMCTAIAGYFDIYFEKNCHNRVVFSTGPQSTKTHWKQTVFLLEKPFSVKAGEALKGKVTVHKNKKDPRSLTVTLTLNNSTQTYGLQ

Compound	effect on PRMT3 activity (in words) (FLAG-tagged PRMT3; 100 μM compound)	Experimental result (PRMT3) (FLAG-tagged PRMT3; Table 1, 100 μM compound, 2 μM PRMT, n = 3, racemates used)	Experimental result (PRMT3) (FLAG-tagged PRMT3; Table S3, 100 µM compound, n≥3)	tumor growth of PANC-1 xenografts (PANC-1 xenografts)	apoptosis, caspase 3/7 activity, single agent (PANC-1 cells; TR-07 10 μM or gemcitabine 10 and 25 nM)	gemcitabine-induced apoptosis, caspase 3/7 activity, co-treatment (PANC-1 cells; compound 10 μM, after 2 h gemcitabine 10 and 25 nM)
(Z)-2-(2-{[(1,3-Dioxo-2,3-dihydroisoquinolin-4(1H)-ylidene)methyl]amino}phenyl)-N,N-dimethylethan-1-aminium chloride [ICTR-059]	concomitant PRMT3 activation					
CN(C)Cc1cccc(CN/C=C2\C(=O)NC(=O)c3ccccc32)c1.Cl [TR-07, (Z)-1-[3-({[(1,3-Dioxo-2,3-dihydroisoquinolin-4(1H)-lidene)methyl]amino}methyl)phenyl]-N,N-dimethylmethanaminium chloride]	neither positively nor negatively influencing	PRMT3 n.e. (Compounds, which did not significantly affect the catalytic activity (less than ±6% change or not significant p-value), are marked with [drawing 8] (no effect))	n.e. (did not significantly affect the catalytic activity (less than ±6% change or not significant p-value), are marked with n.e. (no effect))	significantly reduced the tumor growth compared to the control mice	did not significantly induce apoptosis	further significantly enhanced
